# In ChEMBL document CHEMBL1142788, “Synthesis and antibacterial activity of alkyl derivatives of the glycopeptide antibiotic A40926 and their amides” (2005):
# Experiments:
# Staphylococcus aureus [1] = test: Minimum inhibitory concentration against methicillin-resistant Staphylococcus aureus
# Enterococcus faecalis [2] = test: Minimum inhibitory concentration against vancomycin-sensitive Enterococcus faecalis in the presence of 30% bovine serum(n=3)(range = 0.5-1mg/l); type: functional
# Staphylococcus aureus [3] = test: Minimum inhibitory concentration against methicillin-sensitive Staphylococcus aureus
# [4] = system: Staphylococcus epidermidis; test: Minimum inhibitory concentration against methicillin-sensitive Staphylococcus epidermidis in the presence of 30% bovine serum; type: functional
# Enterococcus faecium [5] = test: Minimum inhibitory concentration against vancomycin-A Enterococcus faecium in the presence of 30% bovine serum (n=1) (range = 64>128mg/L); type: functional
# [6] = system: Staphylococcus haemolyticus; test: Minimum inhibitory concentration against Staphylococcus haemolyticus in the presence of 30% bovine serum; type: functional
# [7] = system: Staphylococcus epidermidis; test: Minimum inhibitory concentration against methicillin-resistant Staphylococcus epidermidis in the presence of 30% bovine serum; type: functional
# Enterococcus faecalis [8] = test: Minimum inhibitory concentration against vancomycin-A Enterococcus faecalis in the presence of 30% bovine serum (n=4); type: functional
# Enterococcus faecium [9] = test: Minimum inhibitory concentration against vancomycin-sensitive Enterococcus faecium in the presence of 30% bovine serum(n=1); type: functional
# Enterococcus faecium [10] = test: Minimum inhibitory concentration against vancomycin-A Enterococcus faecium in the presence of 30% bovine serum (n=1); type: functional
# Enterococcus faecalis [11] = test: Minimum inhibitory concentration against vancomycin-sensitive Enterococcus faecalis in the presence of 30% bovine serum (n=3); type: functional
# Enterococcus faecalis [12] = test: Minimum inhibitory concentration against vancomycin-A Enterococcus faecalis in the presence of 30% bovine serum(n=4) (range = 0.5-8 mg/L); type: functional
# Enterococcus faecalis [13] = test: Minimum inhibitory concentration against vancomycin-sensitive Enterococcus faecalis in the presence of 30% bovine serum (n=3) (range = 0.5-1mg/l); type: functional
# Enterococcus faecium [14] = test: Minimum inhibitory concentration against vancomycin-A Enterococcus faecium in the presence of 30% bovine serum (n=1) (range = 2>128mg/l); type: functional
# Enterococcus faecalis [15] = test: Minimum inhibitory concentration against vancomycin-sensitive Enterococcus faecalis in the presence of 30% bovine serum(n=3)(range = 0.25-1mg/l); type: functional
# Enterococcus faecalis [16] = test: Minimum inhibitory concentration against vancomycin-A Enterococcus faecalis in the presence of 30% bovine serum (n=4) (range = 2-4 mg/L); type: functional
# Enterococcus faecium [17] = test: Minimum inhibitory concentration against vancomycin-A Enterococcus faecium in the presence of 30% bovine serum (n=1) (range = 0.5>128mg/l); type: functional
# Enterococcus faecium [18] = test: Minimum inhibitory concentration against vancomycin-A Enterococcus faecium in the presence of 30% bovine serum (n=1) (range = 0.25-32mg/l); type: functional
# Enterococcus faecalis [19] = test: Minimum inhibitory concentration against vancomycin-A Enterococcus faecalis in the presence of 30% bovine serum(n=4) (range = 0.5-8mg/L); type: functional
# Enterococcus faecalis [20] = test: Minimum inhibitory concentration against vancomycin-sensitive Enterococcus faecalis in the presence of 30% bovine serum(n=3); type: functional
# Enterococcus faecalis [21] = test: Minimum inhibitory concentration against vancomycin-sensitive Enterococcus faecalis in the presence of 30% bovine serum(n=3)(range =0.125-0.25 mg/l); type: functional
# Enterococcus faecium [22] = test: Minimum inhibitory concentration against vancomycin-A Enterococcus faecium in the presence of 30% bovine serum (n=1) (range = 2-64mg/L); type: functional
# Enterococcus faecalis [23] = test: Minimum inhibitory concentration against vancomycin-sensitive Enterococcus faecalis in the presence of 30% bovine serum (n=3) (range = 0.125-0.5); type: functional
# Enterococcus faecalis [24] = test: Minimum inhibitory concentration against vancomycin-A Enterococcus faecalis (n=4) (range = 2-128mg/L)
# Enterococcus faecium [25] = test: Minimum inhibitory concentration against vancomycin-A Enterococcus faecium in the presence of 30% bovine serum (n=1) (range = 0.125-128mg/l); type: functional
# Enterococcus faecalis [26] = test: Minimum inhibitory concentration against vancomycin-A Enterococcus faecalis in the presence of 30% bovine serum(n=4) (range = 16>128mg/L); type: functional
# Enterococcus faecium [27] = test: Minimum inhibitory concentration against vancomycin-A Enterococcus faecium in the presence of 30% bovine serum (n=1) (range = 1>128mg/l); type: functional
# Enterococcus faecalis [28] = test: Minimum inhibitory concentration against vancomycin-sensitive Enterococcus faecalis in the presence of 30% bovine serum(n=3)(range = 0.125 - 0.16 mg/l); type: functional
# Enterococcus faecalis [29] = test: Minimum inhibitory concentration against vancomycin-A Enterococcus faecalis in the presence of 30% bovine serum (n=4) (Range = 0.125 - 16 mg/L); type: functional
# Enterococcus faecium [30] = test: Minimum inhibitory concentration against vancomycin-A Enterococcus faecium in the presence of 30% bovine serum (n=1) (range = 816 mg/L); type: functional
smiles,measurement,setting,value
CN(Cc1ccc2ccccc2c1)[C@H]1C(=O)N[C@@H]2Cc3ccc(cc3)Oc3cc4cc(c3O[C@@H]3OC(C(=O)O)C(O)[C@H](O)C3N)Oc3ccc(cc3Cl)[C@@H](O)C3NC(=O)[C@H](NC(=O)[C@@H]4NC(=O)[C@@H](NC2=O)c2cc(cc(O)c2Cl)Oc2cc1ccc2O)c1ccc(O)c(c1)-c1c(O[C@H]2O[C@H](CO)[C@@H](O)[C@H](O)[C@@H]2O)cc(O)cc1[C@@H](C(=O)O)NC3=O (some centres not stated),MIC,Staphylococcus aureus [1],2 µg/mL
same,MIC,Enterococcus faecalis [2],1 µg/mL
same,MIC,Staphylococcus aureus [3],2 µg/mL
same,MIC,[4],16 µg/mL
same,MIC,Enterococcus faecium [5],> 128 µg/mL
same,MIC,[6],128 µg/mL
same,MIC,[7],32 µg/mL
same,MIC,Enterococcus faecalis [8],128 µg/mL
same,MIC,Enterococcus faecium [9],1 µg/mL
CCCCCCCCOc1ccc(CNC2[C@H](Oc3c4cc5cc3Oc3ccc(cc3Cl)[C@@H](O)C3NC(=O)[C@H](NC(=O)[C@@H]5NC(=O)[C@H]5NC(=O)[C@@H](Cc6ccc(cc6)O4)NC(=O)[C@H](NC)c4ccc(O)c(c4)Oc4cc(O)c(Cl)c5c4)c4ccc(O)c(c4)-c4c(O[C@H]5O[C@H](CO)[C@@H](O)[C@H](O)[C@@H]5O)cc(O)cc4[C@@H](C(=O)NCCCN(C)C)NC3=O)OC(C(=O)NCCCN(C)C)C(O)[C@@H]2O)cc1 (some centres not stated),MIC,Staphylococcus aureus [1],0.25 µg/mL
same,MIC,Staphylococcus aureus [3],0.5 µg/mL
same,MIC,[4],0.125 µg/mL
same,MIC,[6],4 µg/mL
same,MIC,Enterococcus faecium [10],0.8 µg/mL
same,MIC,Enterococcus faecalis [11],0.25 µg/mL
same,MIC,Enterococcus faecium [9],0.13 µg/mL
same,MIC,Enterococcus faecalis [12],8 µg/mL
CN(Cc1c[nH]c2ccccc12)[C@H]1C(=O)N[C@@H]2Cc3ccc(cc3)Oc3cc4cc(c3O[C@@H]3OC(C(=O)O)C(O)[C@H](O)C3NCc3c[nH]c5ccccc35)Oc3ccc(cc3Cl)[C@@H](O)C3NC(=O)[C@H](NC(=O)[C@@H]4NC(=O)[C@@H](NC2=O)c2cc(cc(O)c2Cl)Oc2cc1ccc2O)c1ccc(O)c(c1)-c1c(O[C@H]2O[C@H](CO)[C@@H](O)[C@H](O)[C@@H]2O)cc(O)cc1[C@@H](C(=O)O)NC3=O (some centres not stated),MIC,Staphylococcus aureus [1],2 µg/mL
same,MIC,Enterococcus faecalis [13],1 µg/mL
same,MIC,Staphylococcus aureus [3],4 µg/mL
same,MIC,Enterococcus faecium [14],> 128 µg/mL
same,MIC,[4],64 µg/mL
same,MIC,[6],> 128 µg/mL
same,MIC,[7],128 µg/mL
same,MIC,Enterococcus faecalis [8],32 µg/mL
same,MIC,Enterococcus faecium [9],2 µg/mL
CCCCc1ccc(CNC2[C@H](Oc3c4cc5cc3Oc3ccc(cc3Cl)[C@@H](O)C3NC(=O)[C@H](NC(=O)[C@@H]5NC(=O)[C@H]5NC(=O)[C@@H](Cc6ccc(cc6)O4)NC(=O)[C@H](N(C)Cc4ccc(CCCC)cc4)c4ccc(O)c(c4)Oc4cc(O)c(Cl)c5c4)c4ccc(O)c(c4)-c4c(O[C@H]5O[C@H](CO)[C@@H](O)[C@H](O)[C@@H]5O)cc(O)cc4[C@@H](C(=O)O)NC3=O)OC(C(=O)O)C(O)[C@@H]2O)cc1 (some centres not stated),MIC,Staphylococcus aureus [1],2 µg/mL
same,MIC,[4],4 µg/mL
same,MIC,[6],8 µg/mL
same,MIC,[7],8 µg/mL
same,MIC,Enterococcus faecalis [15],1 µg/mL
same,MIC,Enterococcus faecalis [16],4 µg/mL
same,MIC,Enterococcus faecium [17],> 128 µg/mL
same,MIC,Enterococcus faecium [9],1 µg/mL
CN(C)CCCNC(=O)C1O[C@@H](Oc2c3cc4cc2Oc2ccc(cc2Cl)[C@@H](O)C2NC(=O)[C@H](NC(=O)[C@@H]4NC(=O)[C@H]4NC(=O)[C@@H](Cc5ccc(cc5)O3)NC(=O)[C@H](N(C)Cc3c[nH]c5ccccc35)c3ccc(O)c(c3)Oc3cc(O)c(Cl)c4c3)c3ccc(O)c(c3)-c3c(O[C@H]4O[C@H](CO)[C@@H](O)[C@H](O)[C@@H]4O)cc(O)cc3[C@@H](C(=O)NCCCN(C)C)NC2=O)C(NCc2c[nH]c3ccccc23)[C@@H](O)C1O (some centres not stated),MIC,Staphylococcus aureus [1],1 µg/mL
same,MIC,Staphylococcus aureus [3],2 µg/mL
same,MIC,[4],1 µg/mL
same,MIC,[6],2 µg/mL
same,MIC,[7],2 µg/mL
same,MIC,Enterococcus faecium [18],32 µg/mL
same,MIC,Enterococcus faecalis [19],8 µg/mL
same,MIC,Enterococcus faecalis [20],< 0.125 µg/mL
same,MIC,Enterococcus faecium [9],0.25 µg/mL
CCCCCCCCCCc1ccc(CNC2[C@H](Oc3c4cc5cc3Oc3ccc(cc3Cl)[C@@H](O)C3NC(=O)[C@H](NC(=O)[C@@H]5NC(=O)[C@H]5NC(=O)[C@@H](Cc6ccc(cc6)O4)NC(=O)[C@H](NC)c4ccc(O)c(c4)Oc4cc(O)c(Cl)c5c4)c4ccc(O)c(c4)-c4c(O[C@H]5O[C@H](CO)[C@@H](O)[C@H](O)[C@@H]5O)cc(O)cc4[C@@H](C(=O)O)NC3=O)OC(C(=O)O)C(O)[C@@H]2O)cc1 (some centres not stated),MIC,Staphylococcus aureus [1],2 µg/mL
same,MIC,Staphylococcus aureus [3],4 µg/mL
same,MIC,Enterococcus faecalis [21],0.125 µg/mL
same,MIC,[4],32 µg/mL
same,MIC,[6],32 µg/mL
same,MIC,Enterococcus faecium [22],> 64 µg/mL
same,MIC,Enterococcus faecium [9],0.5 µg/mL
CCCCn1cc(CNC2[C@H](Oc3c4cc5cc3Oc3ccc(cc3Cl)[C@@H](O)C3NC(=O)[C@H](NC(=O)[C@@H]5NC(=O)[C@H]5NC(=O)[C@@H](Cc6ccc(cc6)O4)NC(=O)[C@H](N(C)Cc4cn(CCCC)c6ccccc46)c4ccc(O)c(c4)Oc4cc(O)c(Cl)c5c4)c4ccc(O)c(c4)-c4c(O[C@H]5O[C@H](CO)[C@@H](O)[C@H](O)[C@@H]5O)cc(O)cc4[C@@H](C(=O)NCCCN(C)C)NC3=O)OC(C(=O)NCCCN(C)C)C(O)[C@@H]2O)c2ccccc21 (some centres not stated),MIC,Staphylococcus aureus [1],2 µg/mL
same,MIC,Staphylococcus aureus [3],0.5 µg/mL
same,MIC,[4],0.25 µg/mL
same,MIC,[6],0.25 µg/mL
same,MIC,[7],2 µg/mL
same,MIC,Enterococcus faecalis [23],< 0.5 µg/mL
same,MIC,Enterococcus faecium [9],0.125 µg/mL
same,MIC,Enterococcus faecalis [24],128 µg/mL
same,MIC,Enterococcus faecium [25],128 µg/mL
CCCCn1cc(CNC2[C@H](Oc3c4cc5cc3Oc3ccc(cc3Cl)[C@@H](O)C3NC(=O)[C@H](NC(=O)[C@@H]5NC(=O)[C@H]5NC(=O)[C@@H](Cc6ccc(cc6)O4)NC(=O)[C@H](N(C)Cc4cn(CCCC)c6ccccc46)c4ccc(O)c(c4)Oc4cc(O)c(Cl)c5c4)c4ccc(O)c(c4)-c4c(O[C@H]5O[C@H](CO)[C@@H](O)[C@H](O)[C@@H]5O)cc(O)cc4[C@@H](C(=O)O)NC3=O)OC(C(=O)O)C(O)[C@@H]2O)c2ccccc21 (some centres not stated),MIC,Staphylococcus aureus [1],2 µg/mL
same,MIC,Staphylococcus aureus [3],4 µg/mL
same,MIC,[4],4 µg/mL
same,MIC,Enterococcus faecalis [26],> 128 µg/mL
same,MIC,[6],64 µg/mL
same,MIC,[7],32 µg/mL
same,MIC,Enterococcus faecium [27],> 128 µg/mL
same,MIC,Enterococcus faecalis [11],0.25 µg/mL
same,MIC,Enterococcus faecium [9],< 0.125 µg/mL
CCCCCCOc1ccc(CNC2[C@H](Oc3c4cc5cc3Oc3ccc(cc3Cl)[C@@H](O)C3NC(=O)[C@H](NC(=O)[C@@H]5NC(=O)[C@H]5NC(=O)[C@@H](Cc6ccc(cc6)O4)NC(=O)[C@H](NC)c4ccc(O)c(c4)Oc4cc(O)c(Cl)c5c4)c4ccc(O)c(c4)-c4c(O[C@H]5O[C@H](CO)[C@@H](O)[C@H](O)[C@@H]5O)cc(O)cc4[C@@H](C(=O)NCCCN(C)C)NC3=O)OC(C(=O)NCCCN(C)C)C(O)[C@@H]2O)cc1OCC (some centres not stated),MIC,Staphylococcus aureus [3],< 0.125 µg/mL
same,MIC,Enterococcus faecalis [28],< 0.125 µg/mL
same,MIC,Enterococcus faecalis [29],< 16 µg/mL
same,MIC,[4],< 0.125 µg/mL
same,MIC,[6],2 µg/mL
same,MIC,Enterococcus faecium [10],> 16 µg/mL
same,MIC,Enterococcus faecium [9],< 0.125 µg/mL
CCCCCCOc1ccc(CNC2[C@H](Oc3c4cc5cc3Oc3ccc(cc3Cl)[C@@H](O)C3NC(=O)[C@H](NC(=O)[C@@H]5NC(=O)[C@H]5NC(=O)[C@@H](Cc6ccc(cc6)O4)NC(=O)[C@H](NC)c4ccc(O)c(c4)Oc4cc(O)c(Cl)c5c4)c4ccc(O)c(c4)-c4c(O[C@H]5O[C@H](CO)[C@@H](O)[C@H](O)[C@@H]5O)cc(O)cc4[C@@H](C(=O)NCCCN(C)C)NC3=O)OC(C(=O)NCCCN(C)C)C(O)[C@@H]2O)cc1 (some centres not stated),MIC,Staphylococcus aureus [3],> 0.125 µg/mL
same,MIC,Enterococcus faecalis [29],16 µg/mL
same,MIC,[4],< 0.125 µg/mL
same,MIC,[6],16 µg/mL
same,MIC,Enterococcus faecium [30],> 16 µg/mL
same,MIC,Enterococcus faecalis [11],< 0.125 µg/mL
same,MIC,Enterococcus faecium [9],< 0.125 µg/mL
